The NIST ThermoML archive (doi:10.1016/j.jct.2019.03.023)
Numbers after ± are expanded uncertainties.

Assay: molar heat capacity at constant volume
Settings: Fluid (supercritical or subcritical phases), Vacuum adiabatic calorimetry

## CC(C)O [propan-2-ol]
510.52 K, Mass density=293.3 kg/m3
  molar heat capacity at constant volume: 192.91 ± 5.8 J/K/mol
510.52 K, Mass density=343.1 kg/m3
  molar heat capacity at constant volume: 174.76 ± 5.2 J/K/mol
510.61 K, Mass density=281.9 kg/m3
  molar heat capacity at constant volume: 198.13 ± 5.9 J/K/mol
510.61 K, Mass density=293.3 kg/m3
  molar heat capacity at constant volume: 186.78 ± 5.6 J/K/mol
510.61 K, Mass density=343.1 kg/m3
  molar heat capacity at constant volume: 182.21 ± 5.5 J/K/mol
510.7 K, Mass density=281.9 kg/m3
  molar heat capacity at constant volume: 193.39 ± 5.8 J/K/mol
510.7 K, Mass density=343.1 kg/m3
  molar heat capacity at constant volume: 185.93 ± 5.6 J/K/mol
510.79 K, Mass density=281.9 kg/m3
  molar heat capacity at constant volume: 196.69 ± 5.9 J/K/mol
510.79 K, Mass density=343.1 kg/m3
  molar heat capacity at constant volume: 177.04 ± 5.3 J/K/mol
510.89 K, Mass density=281.9 kg/m3
  molar heat capacity at constant volume: 193.39 ± 5.8 J/K/mol
510.98 K, Mass density=281.9 kg/m3
  molar heat capacity at constant volume: 188.88 ± 5.6 J/K/mol
511.07 K, Mass density=281.9 kg/m3
  molar heat capacity at constant volume: 188.94 ± 5.6 J/K/mol
511.16 K, Mass density=281.9 kg/m3
  molar heat capacity at constant volume: 193.51 ± 5.8 J/K/mol
511.26 K, Mass density=281.9 kg/m3
  molar heat capacity at constant volume: 188.94 ± 5.6 J/K/mol
511.35 K, Mass density=281.9 kg/m3
  molar heat capacity at constant volume: 192.78 ± 5.8 J/K/mol
511.44 K, Mass density=281.9 kg/m3
  molar heat capacity at constant volume: 189 ± 5.6 J/K/mol
511.53 K, Mass density=281.9 kg/m3
  molar heat capacity at constant volume: 191.7 ± 5.8 J/K/mol
515.15 K, Mass density=293.3 kg/m3
  molar heat capacity at constant volume: 182.39 ± 5.5 J/K/mol
515.24 K, Mass density=293.3 kg/m3
  molar heat capacity at constant volume: 178.06 ± 5.3 J/K/mol
515.33 K, Mass density=293.3 kg/m3
  molar heat capacity at constant volume: 182.39 ± 5.5 J/K/mol
515.42 K, Mass density=293.3 kg/m3
  molar heat capacity at constant volume: 173.67 ± 5.2 J/K/mol
515.51 K, Mass density=293.3 kg/m3
  molar heat capacity at constant volume: 178.06 ± 5.3 J/K/mol
515.61 K, Mass density=293.3 kg/m3
  molar heat capacity at constant volume: 173.73 ± 5.2 J/K/mol
515.7 K, Mass density=293.3 kg/m3
  molar heat capacity at constant volume: 178.12 ± 5.3 J/K/mol
515.79 K, Mass density=293.3 kg/m3
  molar heat capacity at constant volume: 185.39 ± 5.6 J/K/mol
515.88 K, Mass density=293.3 kg/m3
  molar heat capacity at constant volume: 178.12 ± 5.3 J/K/mol
515.98 K, Mass density=234.3 kg/m3
  molar heat capacity at constant volume: 168.75 ± 5 J/K/mol
515.98 K, Mass density=293.3 kg/m3
  molar heat capacity at constant volume: 174.52 ± 5.2 J/K/mol
516.07 K, Mass density=234.3 kg/m3
  molar heat capacity at constant volume: 174.22 ± 5.2 J/K/mol
516.16 K, Mass density=234.3 kg/m3
  molar heat capacity at constant volume: 168.75 ± 5 J/K/mol
516.25 K, Mass density=234.3 kg/m3
  molar heat capacity at constant volume: 163.28 ± 4.9 J/K/mol
516.34 K, Mass density=234.3 kg/m3
  molar heat capacity at constant volume: 174.28 ± 5.2 J/K/mol
516.44 K, Mass density=234.3 kg/m3
  molar heat capacity at constant volume: 163.88 ± 4.9 J/K/mol
516.53 K, Mass density=234.3 kg/m3
  molar heat capacity at constant volume: 168.81 ± 5 J/K/mol
516.62 K, Mass density=234.3 kg/m3
  molar heat capacity at constant volume: 168.87 ± 5 J/K/mol
516.71 K, Mass density=234.3 kg/m3
  molar heat capacity at constant volume: 163.4 ± 4.9 J/K/mol
516.71 K, Mass density=281.9 kg/m3
  molar heat capacity at constant volume: 181.31 ± 5.5 J/K/mol
516.81 K, Mass density=234.3 kg/m3
  molar heat capacity at constant volume: 168.87 ± 5 J/K/mol
516.81 K, Mass density=281.9 kg/m3
  molar heat capacity at constant volume: 181.31 ± 5.5 J/K/mol
516.9 K, Mass density=234.3 kg/m3
  molar heat capacity at constant volume: 168.87 ± 5 J/K/mol
516.9 K, Mass density=281.9 kg/m3
  molar heat capacity at constant volume: 176.74 ± 5.3 J/K/mol
516.99 K, Mass density=281.9 kg/m3
  molar heat capacity at constant volume: 176.8 ± 5.3 J/K/mol
517.08 K, Mass density=281.9 kg/m3
  molar heat capacity at constant volume: 185.87 ± 5.6 J/K/mol
517.18 K, Mass density=281.9 kg/m3
  molar heat capacity at constant volume: 176.8 ± 5.3 J/K/mol
517.27 K, Mass density=281.9 kg/m3
  molar heat capacity at constant volume: 181.19 ± 5.5 J/K/mol
517.54 K, Mass density=274 kg/m3
  molar heat capacity at constant volume: 189.48 ± 5.7 J/K/mol
517.64 K, Mass density=274 kg/m3
  molar heat capacity at constant volume: 184.79 ± 5.5 J/K/mol
517.73 K, Mass density=274 kg/m3
  molar heat capacity at constant volume: 180.04 ± 5.4 J/K/mol
517.82 K, Mass density=274 kg/m3
  molar heat capacity at constant volume: 183.77 ± 5.5 J/K/mol
517.91 K, Mass density=274 kg/m3
  molar heat capacity at constant volume: 180.1 ± 5.4 J/K/mol
518 K, Mass density=274 kg/m3
  molar heat capacity at constant volume: 187.14 ± 5.6 J/K/mol
518.07 K, Mass density=274 kg/m3
  molar heat capacity at constant volume: 180.1 ± 5.4 J/K/mol
518.1 K, Mass density=274 kg/m3
  molar heat capacity at constant volume: 183.35 ± 5.5 J/K/mol
518.28 K, Mass density=274 kg/m3
  molar heat capacity at constant volume: 181.73 ± 5.5 J/K/mol
518.37 K, Mass density=274 kg/m3
  molar heat capacity at constant volume: 182.81 ± 5.5 J/K/mol
518.47 K, Mass density=255.8 kg/m3
  molar heat capacity at constant volume: 166.04 ± 5 J/K/mol
518.56 K, Mass density=255.8 kg/m3
  molar heat capacity at constant volume: 167.12 ± 5 J/K/mol
518.65 K, Mass density=255.8 kg/m3
  molar heat capacity at constant volume: 169.05 ± 5.1 J/K/mol
518.74 K, Mass density=255.8 kg/m3
  molar heat capacity at constant volume: 166.34 ± 5 J/K/mol
518.83 K, Mass density=255.8 kg/m3
  molar heat capacity at constant volume: 165.14 ± 5 J/K/mol
518.93 K, Mass density=255.8 kg/m3
  molar heat capacity at constant volume: 167.97 ± 5 J/K/mol
519.02 K, Mass density=255.8 kg/m3
  molar heat capacity at constant volume: 165.14 ± 5 J/K/mol
519.11 K, Mass density=255.8 kg/m3
  molar heat capacity at constant volume: 170.19 ± 5.1 J/K/mol
519.2 K, Mass density=255.8 kg/m3
  molar heat capacity at constant volume: 165.2 ± 5 J/K/mol
519.29 K, Mass density=255.8 kg/m3
  molar heat capacity at constant volume: 166.64 ± 5 J/K/mol
519.39 K, Mass density=255.8 kg/m3
  molar heat capacity at constant volume: 168.99 ± 5 J/K/mol
521.23 K, Mass density=293.3 kg/m3
  molar heat capacity at constant volume: 170.43 ± 5.1 J/K/mol
521.32 K, Mass density=293.3 kg/m3
  molar heat capacity at constant volume: 170.43 ± 5.1 J/K/mol
521.41 K, Mass density=293.3 kg/m3
  molar heat capacity at constant volume: 170.43 ± 5.1 J/K/mol
521.5 K, Mass density=293.3 kg/m3
  molar heat capacity at constant volume: 161.66 ± 4.9 J/K/mol
521.59 K, Mass density=293.3 kg/m3
  molar heat capacity at constant volume: 174.88 ± 5.2 J/K/mol
521.68 K, Mass density=293.3 kg/m3
  molar heat capacity at constant volume: 170.49 ± 5.1 J/K/mol
521.78 K, Mass density=293.3 kg/m3
  molar heat capacity at constant volume: 166.34 ± 5 J/K/mol
521.87 K, Mass density=281.9 kg/m3
  molar heat capacity at constant volume: 173.13 ± 5.2 J/K/mol
521.87 K, Mass density=293.3 kg/m3
  molar heat capacity at constant volume: 169.71 ± 5.1 J/K/mol
521.96 K, Mass density=281.9 kg/m3
  molar heat capacity at constant volume: 168.57 ± 5 J/K/mol
522.05 K, Mass density=281.9 kg/m3
  molar heat capacity at constant volume: 173.19 ± 5.2 J/K/mol
522.14 K, Mass density=281.9 kg/m3
  molar heat capacity at constant volume: 173.19 ± 5.2 J/K/mol
522.23 K, Mass density=281.9 kg/m3
  molar heat capacity at constant volume: 173.19 ± 5.2 J/K/mol
522.33 K, Mass density=281.9 kg/m3
  molar heat capacity at constant volume: 168.63 ± 5 J/K/mol
522.42 K, Mass density=281.9 kg/m3
  molar heat capacity at constant volume: 171.63 ± 5.2 J/K/mol
522.51 K, Mass density=281.9 kg/m3
  molar heat capacity at constant volume: 173.25 ± 5.2 J/K/mol
522.6 K, Mass density=281.9 kg/m3
  molar heat capacity at constant volume: 168.69 ± 5 J/K/mol
524.07 K, Mass density=274 kg/m3
  molar heat capacity at constant volume: 171.75 ± 5.2 J/K/mol
524.16 K, Mass density=274 kg/m3
  molar heat capacity at constant volume: 171.75 ± 5.2 J/K/mol
524.25 K, Mass density=274 kg/m3
  molar heat capacity at constant volume: 176.5 ± 5.3 J/K/mol
524.34 K, Mass density=274 kg/m3
  molar heat capacity at constant volume: 176.5 ± 5.3 J/K/mol
524.43 K, Mass density=274 kg/m3
  molar heat capacity at constant volume: 176.56 ± 5.3 J/K/mol
524.53 K, Mass density=274 kg/m3
  molar heat capacity at constant volume: 171.81 ± 5.2 J/K/mol
524.62 K, Mass density=274 kg/m3
  molar heat capacity at constant volume: 176.56 ± 5.3 J/K/mol
524.71 K, Mass density=274 kg/m3
  molar heat capacity at constant volume: 167.12 ± 5 J/K/mol
524.8 K, Mass density=274 kg/m3
  molar heat capacity at constant volume: 171.87 ± 5.2 J/K/mol
